The values below come from patent US20230339981A1, “KRAS G12D MODULATING COMPOUNDS” (priority 2022, published 2023).

SMILES strings stand for the structures. Bounds are passed on as bounds.

One experiment deals with GDP-loaded KRAS G12D (Homo sapiens (Human), UniProt P01116, G12D). Kind of experiment: KRAS G12D (GDP) biochemical assay (TR-FRET probe displacement). Format: binding. Conditions: 2 hours. The protocol: Example A. KRAS G12D (GDP) Biochemical Assay
Compounds were tested for binding to GDP-loaded KRAS G12D in a 384-well assay format using a TR-FRET probe displacement assay in buffer consisting of 50 mM Hepes (pH 7.4), 150 mM NaCl, 5 mM MgCl2 and 0.005% Tween-20. […] Compounds were serially diluted (1:3) in DMSO. The LabCyte ECHO Acoustic dispenser system was used to pre-spot the assay plates (384-well Non-Binding Surface plates, Corning, Catalog #3824) with 50 nL of compound. The compounds were pre-incubated with 5 μL of 2× final enzyme concentration for 30 minutes before adding 5 μL of 2× final concentration of Eu-streptavidin and TR-FRET probe (10 μL final reaction volume). The plates were incubated at room temperature for 2 hours before measuring TR-FRET ratio on the Envision plate reader. IC50 values were defined as the compound concentration that causes a 50% decrease in TR-FRET ratio and were calculated using a sigmoidal dose-response model to generate curve fits.
Background: TR-FRET usually uses a lanthanide donor and a delayed reading to cut background.

The next experiment deals with GP2D (KRAS G12D) cells. Description: 2D cell viability assay (CellTiter-Glo). It is filed as cell-based. Particulars: GP2d, 96 h, 4 days. The protocol: Example B. 2D Cell Viability Assay
Compounds were tested in a 384-well format for their ability to inhibit the viability of GP2D (KRAS G12D) cells in 2D assays. Compounds were serially diluted (1:3) in DMSO. The LabCyte ECHO Acoustic dispenser system was used to pre-spot assay plates with 200 nL of test molecule per well. 1000 cells/well (40 μL volume per well) in RPMI medium with 10% FBS, and Penicillin-Streptomycin-Glutamine were plated in pre-spotted 384-well plates (Greiner, Catalog #781076) on the BioTEK EL406 liquid dispenser with a 5 μL dispensing cassette (BioTek 7170011). The plates were incubated at 37° C., 5% CO2 for 4 days before addition of CellTiter-Glo (CTG) reagent and measurement of luminescence signal. EC50 values were defined as the compound concentration that causes a 50% decrease in luminescence signal and were calculated using a sigmoidal dose-response model to generate curve fits.
A general note: Cellular ATP, detected with luciferase, serves as a proxy for viable cell number.

Chain of GDP-loaded KRAS G12D (P01116-2 other isoform, or with tags, fused parts or gaps G12D): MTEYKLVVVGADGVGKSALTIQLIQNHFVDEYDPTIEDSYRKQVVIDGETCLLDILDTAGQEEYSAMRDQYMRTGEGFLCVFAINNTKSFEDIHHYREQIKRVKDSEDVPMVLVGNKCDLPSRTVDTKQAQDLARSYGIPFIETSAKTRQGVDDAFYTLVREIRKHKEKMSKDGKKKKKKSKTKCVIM

Usually IC50 stands for the concentration at which inhibition is half-maximal. High values mean weaker potency, low ones greater potency. What is called EC50 is the concentration that produces a half-maximal response. Read a high EC50 as weaker potency. `C#Cc1c(F)ccc2cc(O)cc(-c3nc4c5c(nc(OC[C@@]67CCCN6[C@H](COC(=O)N(C)C(F)(F)F)CC7)nc5c3F)N3C[C@H]5CC[C@H](N5)[C@H]3CO4)c12` [Example 45, ((3S,7aS)-7a-((((5aS,6S,9R)-2-(8-ethynyl-7-fluoro-3-hydroxynaphthalen-1-yl)-1-fluoro-5a,6,7,8,9,10-hexahydro-5H-4-oxa-3,10a,11,13,14-pentaaza-6,9-methanonaphtho[1,8-ab]heptalen-12-yl)oxy)methyl)hexahydro-1H-pyrrolizin-3-yl)methyl methyl(trifluoromethyl)carbamate] had an IC50 at GDP-loaded KRAS G12D of 0.3 nM. The compound also displayed a concentration for a half-maximal effect (EC50) in the experiment with GP2D (KRAS G12D) cells of 4 nM.

For the compound `Fc1c(-c2cccc3ccccc23)nc2c3c(nc(OC[C@@]45CCCN4C[C@H](F)C5)nc13)N1C[C@H]3CC[C@H](N3)[C@H]1CO2` [Example 46, (5aS,6S,9R)-1-fluoro-12-(((2R,7aS)-2-fluorotetrahydro-1H-pyrrolizin-7a(5H)-yl)methoxy)-2-(naphthalen-1-yl)-5a,6,7,8,9,10-hexahydro-5H-4-oxa-3,10a,11,13,14-pentaaza-6,9-methanonaphtho[1,8-ab]heptalene], the IC50 on GDP-loaded KRAS G12D was 910 nM. The EC50 in the experiment with GP2D (KRAS G12D) cells was more than 1000 nM.

Compound `Fc1cc(-c2nc3c4c(nc(OC[C@@]56CCCN5C[C@H](F)C6)nc4c2F)N2C[C@H]4CC[C@H](N4)[C@H]2CO3)c2ccccc2c1` [Example 47, (5aS,6S,9R)-1-fluoro-2-(3-fluoronaphthalen-1-yl)-12-(((2R,7aS)-2-fluorotetrahydro-1H-pyrrolizin-7a(5H)-yl)methoxy)-5a,6,7,8,9,10-hexahydro-5H-4-oxa-3,10a,11,13,14-pentaaza-6,9-methanonaphtho[1,8-ab]heptalene] returned an IC50 at GDP-loaded KRAS G12D of 3400 nM. In the experiment on GP2D (KRAS G12D) cells, this compound had an EC50 of more than 1000 nM.

In turn, `Fc1ccc2ccccc2c1-c1nc2c3c(nc(OC[C@@]45CCCN4C[C@H](F)C5)nc3c1F)N1C[C@H]3CC[C@H](N3)[C@H]1CO2` [Example 48, (5aS,6S,9R)-1-fluoro-2-(2-fluoronaphthalen-1-yl)-12-(((2R,7aS)-2-fluorotetrahydro-1H-pyrrolizin-7a(5H)-yl)methoxy)-5a,6,7,8,9,10-hexahydro-5H-4-oxa-3,10a,11,13,14-pentaaza-6,9-methanonaphtho[1,8-ab]heptalene] displayed an IC50 on GDP-loaded KRAS G12D of 2200 nM. Moreover, in the experiment on GP2D (KRAS G12D) cells, the EC50 is more than 1000 nM.

`Oc1cc(-c2nc3c4c(nc(OC[C@@]56CCCN5C[C@H](F)C6)nc4c2F)N2C[C@H]4CC[C@H](N4)[C@H]2CC3)c2c(CC(F)(F)F)c(F)ccc2c1` [Example 50, 6-fluoro-4-((5aR,6S,9R)-1-fluoro-12-(((2R,7aS)-2-fluorotetrahydro-1H-pyrrolizin-7a(5H)-yl)methoxy)-4,5,5a,6,7,8,9,10-octahydro-3,10a,11,13,14-pentaaza-6,9-methanonaphtho[1,8-ab]heptalen-2-yl)-5-(2,2,2-trifluoroethyl)naphthalen-2-ol] registered an IC50 on GDP-loaded KRAS G12D of 3 nM. The same compound registered an EC50 with GP2D (KRAS G12D) cells of 24 nM.

As for `C#Cc1c(F)ccc2cc(O)cc(-c3nc4c5c(nc(OC[C@@]67CCCN6[C@H](COC(=O)N(C)c6cccc(S(F)(F)(F)(F)F)c6)CC7)nc5c3F)N3C[C@H]5CC[C@H](N5)[C@H]3CO4)c12` [Example 51, ((3S,7aS)-7a-((((5aS,6S,9R)-2-(8-ethynyl-7-fluoro-3-hydroxynaphthalen-1-yl)-1-fluoro-5a,6,7,8,9,10-hexahydro-5H-4-oxa-3,10a,11,13,14-pentaaza-6,9-methanonaphtho[1,8-ab]heptalen-12-yl)oxy)methyl)hexahydro-1H-pyrrolizin-3-yl)methyl methyl(3-(pentafluoro-λ^6-sulfaneyl)phenyl)carbamate], at GDP-loaded KRAS G12D, the IC50 came to 2 nM. Moreover, the EC50 in the experiment with GP2D (KRAS G12D) cells stood at 98 nM.

In the case of `C#Cc1c(F)ccc2cc(O)cc(-c3nc4c5c(nc(OC[C@@]67CCCN6C[C@H](F)C7)nc5c3F)N3C[C@H]5CC[C@H](N5)[C@H]3[C@H](C)O4)c12` [Example 53, 5-ethynyl-6-fluoro-4-((5S,5aS,6S,9R)-1-fluoro-12-(((2R,7aS)-2-fluorotetrahydro-1H-pyrrolizin-7a(5H)-yl)methoxy)-5-methyl-5a,6,7,8,9,10-hexahydro-5H-4-oxa-3,10a,11,13,14-pentaaza-6,9-methanonaphtho[1,8-ab]heptalen-2-yl)naphthalen-2-ol], on GDP-loaded KRAS G12D, the IC50 was 0.1 nM. It took 2 nM to reach a half-maximal effect in the experiment on GP2D (KRAS G12D) cells (EC50).

As to `Oc1cc(-c2nc3c4c(nc(OC[C@@]56CCCN5C[C@H](F)C6)nc4c2F)N2C[C@H]4CC[C@H](N4)[C@H]2CO3)c2c(SC(F)(F)F)c(F)ccc2c1` [Example 54, 6-fluoro-4-((5aS,6S,9R)-1-fluoro-12-(((2R,7aS)-2-fluorotetrahydro-1H-pyrrolizin-7a(5H)-yl)methoxy)-5a,6,7,8,9,10-hexahydro-5H-4-oxa-3,10a,11,13,14-pentaaza-6,9-methanonaphtho[1,8-ab]heptalen-2-yl)-5-((trifluoromethyl)thio)naphthalen-2-ol], on GDP-loaded KRAS G12D, the IC50 amounted to 3 nM. For the same compound, in the experiment with GP2D (KRAS G12D) cells, the EC50 was found to be 42 nM.

For `C#Cc1c(F)ccc2cc(O)cc(-c3nc4c5c(nc(OC[C@@]67CCCN6[C@H](COC(C(F)(F)F)(C(F)(F)F)C(F)(F)F)CC7)nc5c3F)N3C[C@H]5CC[C@H](N5)[C@H]3CO4)c12` [Example 55, 5-ethynyl-6-fluoro-4-((5aS,6S,9R)-1-fluoro-12-(((3S,7aS)-3-(((1,1,1,3,3,3-hexafluoro-2-(trifluoromethyl)propan-2-yl)oxy)methyl)tetrahydro-1H-pyrrolizin-7a(5H)-yl)methoxy)-5a,6,7,8,9,10-hexahydro-5H-4-oxa-3,10a,11,13,14-pentaaza-6,9-methanonaphtho[1,8-ab]heptalen-2-yl)naphthalen-2-ol], the IC50 at GDP-loaded KRAS G12D was found to be 0.5 nM. This compound also came in with an EC50 in the experiment with GP2D (KRAS G12D) cells of 0.8 nM.

On GDP-loaded KRAS G12D, `C#Cc1c(F)ccc2cc(O)cc(-c3nc4c5c(nc(OC[C@@]67CCCN6C[C@H](OC(C(F)(F)F)(C(F)(F)F)C(F)(F)F)CC7)nc5c3F)N3C[C@H]5CC[C@H](N5)[C@H]3CO4)c12` [Example 56, 5-ethynyl-6-fluoro-4-((5aS,6S,9R)-1-fluoro-12-(((6R,8aS)-6-((1,1,1,3,3,3-hexafluoro-2-(trifluoromethyl)propan-2-yl)oxy)hexahydroindolizine-8a(1H)-yl)methoxy)-5a,6,7,8,9,10-hexahydro-5H-4-oxa-3,10a,11,13,14-pentaaza-6,9-methanonaphtho[1,8-ab]heptalen-2-yl)naphthalen-2-ol] returned an IC50 of 13 nM. Besides, in the experiment with GP2D (KRAS G12D) cells, the EC50 was determined as 50 nM.

`C#Cc1c(F)ccc2cc(O)cc(-c3cc4c5c(nc(OC[C@@]67CCCN6C[C@H](F)C7)nc5c3F)N3C[C@H]5CC[C@H](N5)[C@H]3CO4)c12` [Example 57, 5-ethynyl-6-fluoro-4-((5aS,6S,9R)-1-fluoro-13-(((2R,7aS)-2-fluorotetrahydro-1H-pyrrolizin-7a(5H)-yl)methoxy)-5a,6,7,8,9,1O-hexahydro-5H-6,9-epiminoazepino[2′,1′:3,4][1,4]oxazepino[5,6,7-de]quinazolin-2-yl)naphthalen-2-ol] yielded an IC50 on GDP-loaded KRAS G12D of 0.6 nM. For the same compound, a half-maximal effect in the experiment on GP2D (KRAS G12D) cells (EC50) was put at 28 nM.
